“And” between values parts separate entries of the source, which are not always exact repeats. Equal entries are not always repeated.

The test system of data set [1] is A375 tumors. The data set is described as follows: Implantable device assay: apoptosis (cleaved caspase 3) after device delivery in A375 tumors. It is filed as in vivo, mice. Here is the method: (§1) Doxorubicin was loaded into a microwell in the implantable device. The device was implanted into tumor tissue. This was repeated for three different murine human cell tumor models (BT474, PC3, A375). After implantation for 20 hours, the device and surrounding tissue was removed, and embedded in acrylic for cross-sectioning and histopathological analysis.
(§2) Fluorescent imaging techniques were used on sample cross-sections to determine the doxorubicin concentration and diffusion profile within the tissue surrounding the device. Standard histopathological techniques, such as but not limited to, immunochemical techniques, can be used to measure a desired characteristic within the surrounding tissue to determine effectiveness of a compound. In this instance, cleaved caspase 3 antibodies were used to detect cells undergoing apoptosis.
Efficacy of doxorubicin at different concentration gradients within the tissue was quantified using a two-step analysis. […]
Second, the effect of the drug on a measurable characteristic in each concentration region is determined. In this example, the amount of cells undergoing apoptosis, as determined by cleaved caspase 3 antibody binding, was evaluated in each doxorubicin concentration region. Efficacy of the doxorubicin released from the microwell is determined by antibody staining of tissue sections divided into regions corresponding to local compound exposure.
Varying percentages (1% and 5% by weight) of doxorubicin was dissolved in PEG having a molecular weight of 1000 or 1450. […] After 20 hours, the device and surrounding tissue was removed and analyzed for doxorubicin concentration and cleaved caspase 3 expression, as previously described.
Murine A375, BT474, or PC3 tumor models were used to determine whether the device measurement of local microdose response is a satisfactory predictor of a systemic response in different tumor models. […] Apoptosis, as measured by cleaved caspase 3 expression, was used to evaluate drug efficacy at 24 hours post implantation or systemic dosing. […]

Another data set deals with BT474 tumors. The data set is described as follows: Implantable device assay: apoptosis (cleaved caspase 3) after device delivery in BT474 tumors. It is filed as in vivo, mice. The settings on record: for apoptotic index (AI): device-delivery, 24 hours post implantation; for increase of apoptosis by addition to microwells preloaded with doxorubicin: 24 hours, vs doxorubicin alone. The protocol:
as §1, §2
(§3) Murine A375, BT474, or PC3 tumor models were used to determine whether the device measurement of local microdose response is a satisfactory predictor of a systemic response in different tumor models. Doxorubicin was placed within the microwells of implantable devices. The devices were implanted into A375, BT474, or PC3 tumors on mice. Apoptosis, as measured by cleaved caspase 3 expression, was used to evaluate drug efficacy at 24 hours post implantation or systemic dosing.
Sunitinib or lapatinib was loaded into microwells in the implantable device that were preloaded with doxorubicin. The device was then implanted into BT474 tumors. The device and surrounding tissue was removed 24 hours later and apoptosis was evaluated by cleaved caspase 3 expression using standard immunohistochemical assays.

Data set [2] concerns PC3 tumors. Briefly: Implantable device assay: apoptosis (cleaved caspase 3) after device delivery in PC3 tumors. It is filed as in vivo, mice. The settings on record: for apoptotic index (AI): device-delivery, 24 hours post implantation. Here is the method:
as §1, §2, §3
The implantable device assay was tested in murine tumor models (A375 and PC3) for its ability to predict the response of tumors to several other cytotoxic and targeted anti-cancer agents. Vemurafenib is an enzyme inhibitor that specifically targets the BRAF V600E mutation. A375 tumors have this mutation. […] Response to vemurafenib was measured by intratumor apoptotic response using the implantable device assay.
Sunitinib was loaded into microwells in the implantable device that were preloaded with doxorubicin. The device was then implanted into PC3 tumors. The device and surrounding tissue was removed 24 hours later and apoptosis was evaluated by cleaved caspase 3 expression using standard immunohistochemical assays.

In another data set the test system is MDA-MB231 tumors. The data set is described as follows: Implantable device assay: apoptosis (cleaved caspase 3) after device delivery in MDA-MB231 tumors. It is filed as in vivo, mice. The protocol:
Lapatinib was loaded into microwells in the implantable device that were preloaded with doxorubicin. The device was then implanted into MDA-MB231 tumors. The device and surrounding tissue was removed 24 hours later and apoptosis was evaluated by cleaved caspase 3 expression using standard immunohistochemical assays.

Data set [3] concerns A375 tumors. Briefly: Local tumor apoptosis (cleaved caspase 3) after systemic dosing in A375 tumors. It is filed as in vivo, mice. The settings on record: systemic dosing 8 mg/kg, 24 hours. The protocol: (§4) To compare the efficacy of device delivered doxorubicin to efficacy achieved with systemic delivery, mice bearing A375 or PC3 tumors were systemically administered an 8 mg/kg dose of doxorubicin. Apoptosis, as measured by cleaved caspase 3 expression, was used to evaluate drug efficacy at 24 hours post implantation or systemic dosing.

Data set [4] deals with PC3 tumors. The data set is described as follows: Local tumor apoptosis (cleaved caspase 3) after systemic dosing in PC3 tumors. It is filed as in vivo, mice. The settings on record: systemic dosing 8 mg/kg, 24 hours. The protocol: as §4
A short description of data set [5]: Doxorubicin concentration in tumor tissue surrounding the implanted device (fluorescent imaging). It is filed as in vivo, mice. To be noted: mouse, pure doxorubicin in microwell, 20 hours post implantation.
Source text: as §2
Varying percentages (1% and 5% by weight) of doxorubicin was dissolved in PEG having a molecular weight of 1000 or 1450. Pure powder doxorubicin and the PEG-doxorubicin formulations were loaded into microwells in the device. The device was implanted into tumors. After 20 hours, the device and surrounding tissue was removed and analyzed for doxorubicin concentration and cleaved caspase 3 expression, as previously described.
Microwells were loaded with pure doxorubicin and the device was implanted into tumor tissue. The device and surrounding tissue was removed at varying times post-implantation. The concentration of doxorubicin in the surrounding tissue was evaluated using immunohistochemical techniques and fluorescent imaging.
(§5) Doxorubicin was administered systemically at 8 mg/kg to BT474 bearing mice. Intratumor concentration of doxorubicin was analyzed by standard immunohistochemical and fluorescence techniques previously described and standard in the art. Doxorubicin was loaded into microwells in the device. The device was implanted in a BT474 tumor as in Example 7. After 20 hours, the device and surrounding tissue was excised and doxorubicin concentration in the surrounding tumor tissue was analyzed.

Data set [6] in a line: Intratumor concentration of doxorubicin after systemic administration. It is filed as in vivo. To be noted: systemic 8 mg/kg, BT474 bearing mice. Here is the method: as §5
For the next data set, the system named is Ki67. Briefly: Ki67 protein expression by immunohistochemistry around device in BT474 tumor. It is filed as in vivo. To be noted: 20 hour exposure, region closest to the microwell. The protocol: (§6) Doxorubicin was loaded into microwells in the device and implanted within a BT474 tumor. After 20 hours, the device and surrounding tissue was removed. Protein expression of cleaved caspase 3 and Poly(ADP-ribose) polymerase (PARP) was evaluated by immunohistochemical analysis. These biomarkers are indicators of apoptosis. Protein expression of Ki67 and survivin was evaluated by immunohistochemical analysis. Ki67 is a biomarker for monitoring reduced cell proliferation rates. Survivin is a biomarker for monitoring reduced inhibition of apoptosis.
(§7) Effect of 20 hour doxorubicin exposure on the expression of the biomarkers was determined as described in Example 4. However, here four concentration gradient regions of approximately 100 μm were determined and evaluated.

Another data set relates to survivin. The data set is described as follows: Survivin protein expression by immunohistochemistry around device in BT474 tumor. It is filed as in vivo. To be noted: 20 hour exposure, region closest to the microwell. The protocol: as §6, §7
The mark [7] stands for this setting: device-delivery, single agent, MDA-MB231 tumors.

With `COc1cccc2c1C(=O)c1c(O)c3c(c(O)c1C2=O)C[C@@](O)(C(=O)CO)C[C@@H]3O[C@H]1C[C@H](N)[C@H](O)[C@H](C)O1` [doxorubicin], in the data set on A375 tumors [1] (20 hours, A375 compared with BT474 and PC3, approximately 100-250 μm from the microwell), the “number of cleaved caspase 3 positive cells as percent area of DAB staining” value is “greatest number of cells to undergo apoptosis”. Moreover, the “apoptotic index (AI)” value in the data set on A375 tumors [1] (device-delivery, A375 tumors, 24 hours post implantation) was 55%; with BT474 tumors, 18%; with PC3 tumors [2], 6%; in the data set with MDA-MB231 tumors (setting [7]), 7.4%. The “local tumor apoptosis, apoptotic index (AI)” value is recorded as 34.9% with A375 tumors [3] and 8.7% in the data set on PC3 tumors [4]. The concentration at 20 h in [5] (0-130 μm from the microwell) is 15000 to 20000 ng/g; in [5] (approximately 130-200 μm from the microwell), 8000 to 13000 ng/g; in data set [5] (approximately 200-300 μm from the microwell), 3000 to 7000 ng/g. Also, in data set [6], the “intratumor doxorubicin concentration, areas of high concentration” value fell in the range of 8 to 13 mg/kg. Further, in [6], the “intratumor doxorubicin concentration, areas of low concentration” value lay within 3 to 7 mg/kg. The Ki67 expression result in the data set on Ki67 was “undetectable levels”. Further, in the data set with survivin, the Survivin expression result was “undetectable”.

`Nc1ccn([C@@H]2O[C@H](CO)[C@@H](O)C2(F)F)c(=O)n1` [gemcitabine]: the “apoptotic index (AI)” value with BT474 tumors was 2.0% and 2.6%; in the data set on PC3 tumors [2], 12.5%; in the data set on MDA-MB231 tumors (setting [7]) it was 21.8%.

`CS(=O)(=O)CCNCc1ccc(-c2ccc3ncnc(Nc4ccc(OCc5cccc(F)c5)c(Cl)c4)c3c2)o1` [lapatinib]: the “increase of apoptosis by addition to microwells preloaded with doxorubicin” value in the data set on BT474 tumors is listed as 355%. In the data set on MDA-MB231 tumors (MDA-MB-231 tumors, 24 hours, vs doxorubicin alone), the “elevation of apoptotic response by addition to doxorubicin in the microwells” value was determined as 140%. Besides, the “apoptotic index (AI)” value in the data set on MDA-MB231 tumors (lapatinib added to doxorubicin in the microwells, MDA-MB-231 tumors, 24 hours) is reported as 17.5%.

`CCN(CC)CCNC(=O)c1c(C)[nH]c(/C=C2\C(=O)Nc3ccc(F)cc32)c1C` [sunitinib]: the “increase of apoptosis by addition to microwells preloaded with doxorubicin” value is reported as 66% in the data set with BT474 tumors and 330% in the data set on PC3 tumors [2] (24 hours, vs doxorubicin alone).

As to `CC[C@@]1(O)C(=O)OCc2c1cc1n(c2=O)Cc2cc3c(CN(C)C)c(O)ccc3nc2-1` [topotecan], the “apoptotic index (AI)” value was 2.2% in the data set on BT474 tumors and 6.3% in the data set with PC3 tumors [2].

On to `CCCS(=O)(=O)Nc1ccc(F)c(C(=O)c2c[nH]c3ncc(-c4ccc(Cl)cc4)cc23)c1F` [vemurafenib], for which the “intratumor apoptotic response greater in A375 model as compared to PC3 model” value in the data set with A375 tumors [1] (device-delivery, A375 (BRAF V600E) vs PC3) was determined as 250%.

The values are drawn from US10183155B2, “Implantable devices and methods for evaluation of active agents” (Kibur Medical, Inc., priority 2011, dated 2019).
